Measurements from patent US20110293745A1, “AURORA KINASE INHIBITORS” (SUNESIS PHARMACEUTICALS, INC., priority 2008, published 2011).

Experiments:
[1] = Mass balance, elimination, autoradiography and metabolites with 14C-label; type: in vivo; settings: male rats, 14C-labeled Compound 1 IV bolus 50 mg/kg, total radioactivity
Method: Treated rats were further cannulated in femoral vein and the bile duct to allow for the evaluation of the rate and extent of elimination of total radioactivity from urine, bile, and feces. Total radioactivity was analyzed by liquid scintillation counting.
Preparation of samples for metabolite analysis was as follows. Plasma samples were extracted by protein precipitation with acetonitrile. The extraction was preformed by adding ice cold acetonitrile (3 parts) to plasma (1 part v/v). After the samples were mixed using a benchtop vortex mixer the samples were centrifuged, the supernatants were transferred to silanized glass tubes, evaporated to dryness under nitrogen, and reconstituted in 50/50 acetonitrile/water solution. Urine samples were directly injected. Bile samples containing radioactivity were diluted in water prior to injection.
Metabolites in plasma, urine, and bile were separated on a reverse phase HPLC column with an Agilent 1000 system (Santa Clara, Calif.).

MiaPaca2 = experiment: Cell Proliferation ELISA, BrdU; type: cell-based; settings: Homo sapiens, MIA PaCa-2; MiaPaca2 (Pancreatic), 96 hr
Method: Cellular proliferation was assessed using the Cell Proliferation ELISA, bromodeoxyuridine (BrdU) kit (Roche) including reagents, according to the kit protocol.

[2] = tested on: phospho-histone H3 in HCT 116 cells; experiment: Phospho-histone H3 staining (High Content Screening); type: cell-based; settings: Homo sapiens
Method: Analysis of phospho-histone H3 (pHH3) levels was performed on adherent cells using high-content screening methodology. […]. This series was diluted 1000× in RPMI-1640 containing 10% FBS (1× treatment concentration: 10 μM-0.0002 μM). […].
Then, medium was aspirated and cells were incubated in 100 μL/well 4% formaldehyde for 15 min at room temperature.
[…]. […] Data were fit to an IC50 equation. […]. Cells were trypsinized, collected, lysed, and analyzed by immunoblotting.

[3] = tested on: PC3 prostate tumor xenograft; experiment: In vivo efficacy, mouse xenograft
Method: Percent TGI is then calculated with the following equation: […]
Time To Endpoint (TTE) was calculated for each individual animal to reach the predetermined study end point where the tumor volume becomes 1200 mm^3 or 10% of body weight or a greater than 20% body weight loss for two sequential measurements. The TTE is calculated and the median value is recorded for the group. Tumor Growth Delay (TGD) is then calculated with the following equation: […]
PC3 prostate tumor fragments (1 mm^3) were implanted subcutaneously in the right hind flank of mice. After 21 days, when tumors reached a volume of approximately 120 mm^3, animals were weighed, randomized by tumor volume (l×w×h×0.52), and assigned to the various study groups before initial dosing.

HCT 116 cells = experiment: Fluorescent imaging (DNA and tubulin); type: cell-based, human; settings: 16 nM, 72 hr
Method: Cells were then fixed with 4% paraformaldehyde for 20 min at room temperature, washed with 1×PBS three times, permeabilized with 0.1% Triton® X-100 nonionic surfactant for 5 min at room temperature, washed with 1×PBS twice, blocked with 10% fetal bovine serum (FBS) in PBS for 2 hr at room temperature. The cells were incubated in a diluted alpha-tubulin primary antibody solution in 10% FBS for 2 days at 4° C., and stained with DAPI (DNA/.blue) and with a diluted FITC-labeled secondary antibody (tubulin/green) solutions in 10% FBS for 1 hr at room temperature away from light. Cells were then washed in 1×PBS and the coverslips were mounted on slides and analyzed with a […]2 fluorescence microscope with a 63× oil immersion objective. Images were captured on a […] camera and analyzed using Image-Pro software. For both images captured, the same objective was used.

Row | SMILES | Mean cumulative % recovery ([1]; Bile, interval 0-8 hr) [%] | Mean cumulative % recovery ([1]; Bile, interval 8-24 hr) [%] | Mean cumulative % recovery ([1]; Bile, interval 24-48 hr) [%] | Mean cumulative % recovery ([1]; Cumulative Total, 24 hr) [%] | Mean cumulative % recovery ([1]; Cumulative Total, 48 hr) [%] | Mean cumulative % recovery ([1]; Feces, interval 0-24 hr) [%] | Mean cumulative % recovery ([1]; Feces, interval 24-48 hr) [%] | Mean cumulative % recovery ([1]; Urine, interval 0-8 hr) [%] | Mean cumulative % recovery ([1]; Urine, interval 8-24 hr) [%] | Mean cumulative % recovery ([1]; Urine, interval 24-48 hr) [%] | IC50 (MiaPaca2) [nM] | EC50 ([2]; HCT 116, 1 hour treatment, read-out: EC50 of the reduction of pHH3) [nM] | IC50 ([2]; HCT 116, 1 hour, pHH3 staining) [nM] | % TGI ([3]; 42.5 mg/kg biw × 3) [%] | TGD ([3]; 42.5 mg/kg biw × 3) [days] | % TGI ([3]; 85 mg/kg biw × 3) [%] | TGD ([3]; 85 mg/kg biw × 3) [days] | % TGI ([3]; 170 mg/kg biw × 3) [%] | TGD ([3]; 170 mg/kg biw × 3) [days] | cell morphology (HCT 116 cells)
1 | O=C(Nc1cccc(Cl)c1)Nc1ncc(CCNc2ncnc3ccsc23)s1 [Compound 2, 1-(3-chlorophenyl)-3-{5-[2-(thieno[3,2-d]pyrimidin-4-ylamino)ethyl]thiazol-2-yl}-urea] | 39.7 | 68.5 | 69.5 | 89.7 | 92.3 | 11.8 | 13.2 | 6.1 | 9.4 | 9.6 | – | – | – | – | – | – | – | – | – | –
2 | CS(=O)(=O)O.O=C(Nc1cccc(Cl)c1)Nc1ncc(CCNc2ncnc3ccsc23)s1 [Compound 1, 1-(3-chlorophenyl)-3-{5-[2-(thieno[3,2-d]pyrimidin-4-ylamino)ethyl]thiazo}-urea] | – | – | – | – | – | – | – | – | – | – | 9.1 | ~9 | 9 | 39.5 | 0 | 63.6 | 12 | 67.5 | 25 | formation of large polyploid cells
